Experiments:
HUVECs = experiment: Tube formation in vitro; type: cell-based, human
Description: Matrigel was thawed at 4 °C and 50 μL of the solution were added to each well in a 96-well plate and formed a gel at 37 °C for 30 min. HUVECs were suspended at 1 × 10^4 cells in 100 μL of A549 cell supernatant with or without L14e (0, 0.5, 1.0, and 1.5 μM), and then added to each well. After 24h-incubation, the degree of tube formation was determined by counting the number of areas surrounded by tubes contained in 10 random fields, and expressed as mean ± SD. Using Image J for data analysis.

H460 cells = experiment: Annexin V/PI staining flow cytometry, H460; type: cell-based, human; settings: 24 h
Description: The density of the A549 cells and H460 in the logarithmic growth phase was adjusted to 1 × 10^6 cells/mL, and a total of 1 mL of cell suspension and 1 mL of L14e at different concentrations were added into each well with the final compound L14e concentration in each group as 0, 0.5, 1.0, and 1.5 μM. Details are given in Supplementary Materials and Methods.
The density of the A549 cells and H460 in the logarithmic growth phase was adjusted to 1 × 10^6 cells/mL, and then the cell suspension was seeded into a 6-well plate (Becton Dickinson and Company, USA). A total of 1 mL of cell suspension and 1 mL of compound L14e at different concentrations were added into each well with the final compound L14e concentration in each group as 0 μM, 0.5 μM, 1.0 μM, and 1.5μM. After cells were incubated for 24 h at 37 °C, 1 mL of cell suspension per well was collected and centrifuged at 1000 r/min for 10 min at 4°C, and the supernatant was removed. Then, 1 mL of cold PBS was added to the cell pellet, and was shaken lightly to re-suspend the cells. The cells were centrifuged at 1000 r/min at 4 °C for 10 min, and the supernatant was removed. These steps were repeated twice. The cells were re-suspended in 150µL of PBS, 10 µL of fluorescein isothiocyanate (FITC)-labeled Annexin V (Annexin V-FITC) (Promega Corporation, USA) and 5 µL of PI (Promega Corporation, USA) were added. The mixture was gently mixed and incubated in the dark at room temperature for 10 min then stained cells were analyzed using flow cytometry to test the levels of apoptotic cells (Becton Dickinson and Company, USA; FACS Calibur).

GES-1 cell line = experiment: Selectivity index against GES-1; type: cell-based; settings: SI = CC50/IC50
[1] = system: P53, caspase-3, bcl-2/bax, cleaved caspase-3; experiment: Western blot apoptotic proteins, H460; type: cell-based, human; settings: H460, 0.5, 1.0, 1.5 μM, 24 h
Description: A549 cells, H460 cells and HUVECs were treated with different concentrations of compound L14e for 24 h. Primary antibodies (100 μL/cm^2): P53(10442-1-AP, Proteintech Group),caspase-3 (19677-1-AP, Proteintech Group), bax (50599-2-lg, Proteintech Group), bcl-2 (12789-1-AP, Proteintech Group), cleaved caspase-3 (25546-1-AP, Proteintech Group), β-actin (60008-1-lg, Proteintech Group), EGFR (ab21074, Abcam), AKT (#2920, Cell Signaling Technology), ERK1/2 (#4370, Cell Signaling Technology), VEGFR-2 (#9698, Cell Signaling Technology), p-EGFR (ab40815, Abcam), p-AKT (#4060, Cell Signaling Technology), p-ERK1/2 (#4695, Cell Signaling Technology), p-VEGFR-2 (#3770, Cell Signaling Technology), and GAPDH (ab181603, Abcam). The cellular levels of proteins were determined by standard Western blotting. Details were given in Supplementary Materials and Methods.
A549 cells, H460 cells and HUVECs were treated with different concentrations of compound L14e for 24 h, and collected to establish their respective treatment groups. […]
Extracted proteins were separated from each other using polyacrylamide electrophoresis on a 10 % gel (Beyotime Biotechnology Company, Shanghai, China) and transferred to a polyvinylidene fluoride (PVDF) membrane. […] Gray values of protein bands were quantitatively analyzed, with the gray value of β-actin(GAPDH) band as the reference.

EGFR kinase = EGFR kinase (Homo sapiens, UniProt P00533); experiment: ADP-Glo kinase assay, EGFR; type: biochemical; settings: averages from triplicate assays
EGFR kinase, sequence (P00533 25-1210): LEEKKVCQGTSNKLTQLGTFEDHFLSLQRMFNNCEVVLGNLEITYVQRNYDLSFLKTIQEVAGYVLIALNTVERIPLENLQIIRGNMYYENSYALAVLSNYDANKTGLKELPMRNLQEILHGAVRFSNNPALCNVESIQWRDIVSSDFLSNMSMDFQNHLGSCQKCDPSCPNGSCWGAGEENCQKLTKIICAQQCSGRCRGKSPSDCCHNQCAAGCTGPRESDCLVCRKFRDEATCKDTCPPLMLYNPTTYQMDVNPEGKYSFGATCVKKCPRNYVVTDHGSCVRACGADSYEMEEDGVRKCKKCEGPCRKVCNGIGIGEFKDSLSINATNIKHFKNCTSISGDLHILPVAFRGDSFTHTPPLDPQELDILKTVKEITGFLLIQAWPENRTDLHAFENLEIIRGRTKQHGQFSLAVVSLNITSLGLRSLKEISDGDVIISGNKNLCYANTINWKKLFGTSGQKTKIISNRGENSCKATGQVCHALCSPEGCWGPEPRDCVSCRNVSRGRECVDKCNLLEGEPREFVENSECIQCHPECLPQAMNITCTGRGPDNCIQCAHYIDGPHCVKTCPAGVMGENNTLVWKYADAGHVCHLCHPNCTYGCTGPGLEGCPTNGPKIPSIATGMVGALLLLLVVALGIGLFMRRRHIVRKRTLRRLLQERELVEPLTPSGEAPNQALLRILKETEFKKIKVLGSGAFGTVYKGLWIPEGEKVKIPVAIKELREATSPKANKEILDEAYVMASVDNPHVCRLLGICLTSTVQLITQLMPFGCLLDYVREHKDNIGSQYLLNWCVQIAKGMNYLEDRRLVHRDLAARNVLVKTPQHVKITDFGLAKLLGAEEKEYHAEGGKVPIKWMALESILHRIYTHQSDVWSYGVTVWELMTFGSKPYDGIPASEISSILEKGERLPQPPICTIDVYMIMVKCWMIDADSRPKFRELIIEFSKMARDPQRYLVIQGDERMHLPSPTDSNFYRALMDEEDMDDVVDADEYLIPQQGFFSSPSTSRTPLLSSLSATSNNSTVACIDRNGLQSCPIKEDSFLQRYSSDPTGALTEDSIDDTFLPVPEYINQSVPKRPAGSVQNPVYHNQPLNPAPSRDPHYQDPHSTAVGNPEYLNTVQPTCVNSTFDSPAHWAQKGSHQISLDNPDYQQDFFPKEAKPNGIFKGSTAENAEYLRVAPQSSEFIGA
Description: The ADP-Glo™ kinase assay (Promega, Madison, WI) was used to screen target compounds for their inhibition effects for BRaf, EGFR kinase. The kinase assay was carried out in a 96-well plate, in a volume of 25 μL HEPES (pH 7.3) solvent containing 1.6 μg/mL EGF, and 20 ng of EGFR kinase, or 50 ng BRaf kinase, and 10 μM ATP (Promega, Madison, WI). […] Reactions in each well were started immediately by adding ATP and kept going for half an hour under 30 °C in a constant temperature incubator (Bluepard, Shanghai, China). After the plate cooled for 5 min at room temperature, 25 μl of ADP-Glo reagent was added into each well to stop the reaction and consume the remaining […] within 40 min. At the end, 50 μl of kinase detection reagent was added into the well and incubated for 1 h to produce a luminescence signal.

## O=C(Nc1cccc(Cl)c1)Nc1ccccc1NS(=O)(=O)c1c[nH]c(=O)[nH]c1=O [Compound L14e, N'-(3-chlorophenyl)-2-(2,4-dihydroxypyrimidine-5-sulfonamido)phenyl urea]
HUVECs; dose-dependent
  expression of phosphorylated VEGFR-2 (Tyr1175) in HUVECs: inhibiting the expression of phosphorylated VEGFR-2
HUVECs; supernatant of A549 cells treated with 0.5, 1.0, 1.5 μM, 24 h
  tube formation of HUVECs: inhibited tube formation
H460 cells; H460, 0.5 μM
  apoptotic rate: 6.4%
  early apoptosis rate (Q4, Annexin V [+] PI [−]): 3.9%
H460 cells; H460, 1.0 μM
  apoptotic rate: 21.8%
  early apoptosis rate (Q4, Annexin V [+] PI [−]): 15.1%
H460 cells; H460, 1.5 μM
  apoptotic rate: 24.4%
  early apoptosis rate (Q4, Annexin V [+] PI [−]): 17.3%
GES-1 cell line
  SI (Selectivity index) GES-1: 8.58
[1]
  expression of P53, bax, bcl-2, cleaved caspase-3: over expression of P53, up-regulation of bax and down-regulation of bcl-2
EGFR kinase
  IC50: 1920 nM
